Test results as given in publication PMC8406801, “Naringenin Inhibits Platelet Activation and Arterial Thrombosis Through Inhibition of Phosphoinositide 3-Kinase and Cyclic Nucleotide Signaling” (Frontiers in Pharmacology, 2021).
Where “and” joins values, the source holds several entries; their conditions need not be identical. Identical values can stand only once.

Columns and labels:
[1] = system: Akt Ser473 phosphorylation; test: Immunoblotting of phospho-Akt (Ser473) in ADP-stimulated washed platelets; assay type: cell-based, rat; conditions: single replicates; for p-Akt Ser473 / t-Akt: raw data
Method: (§1) For in vitro platelet aggregation, aliquots of washed platelets were preincubated with vehicle or various concentrations of naringenin for 5 min and stimulated with ADP (10 μmol/L) under stirring at 37°C for 5 min. For ex vivo platelet aggregation, PRP was incubated at 37°C for 5 min and stimulated with ADP (5 μmol/L) under stirring at 37 °C. The platelet aggregation was terminated by adding ethylenediaminetetraacetic acid (EDTA; 10 mM). Total protein was prepared using RIPA lysis buffer and protein content was determined by bicinchoninic acid (BCA) protein assay kit. Equal amounts of platelet proteins (30 μg) were separated on 10% SDS polyacrylamide gel electrophoresis (SDS-PAGE) and then transferred to poly vinylidene difluoride (PVDF) membranes and subjected to western blot. Blots were blocked with TBS-Tween 20 containing 5% BSA and probed with primary antibodies diluted in blocking solution at 4°C overnight followed by incubation with the corresponding HRP secondary antibodies. The protein bands were visualized using enhanced chemiluminescence (ECL).
(§2) FIGURE 4 Naringenin inhibits PI3K-mediated signaling in ADP-induced platelets. Washed rat platelets were preincubated without or with naringenin at 37°C for 5 min, and then stimulated with ADP (10 μmol/L) under stirring for 5 min. Platelet proteins were then extracted and analyzed by immunoblotting using PI3Kp110β antibody (A) and phospho-specific antibodies such as Akt^Ser473 (B), Akt^Thr308 (C), ERK1/2^Thr202/Tyr204 (D) and GSK3β^Ser9 (E). Total level of GAPDH was measured on each sample as a loading control. The blots shown are representative of three separate experiments. The relative protein expression levels were quantified by ImageJ 1.47v software. The level of relative protein expression obtained with vehicle control (0 μM) was taken as 1. R represents the level of relative protein expression in resting platelets. Data are expressed as means ± SD (n = 3). *p < 0.05, **p < 0.01, ***p < 0.001 compared with the vehicle control group.
FIGURE 5 Effects of naringenin combined with PI3K pan inhibitor LY294002 on platelet aggregation and Akt phosphorylation. Washed rat platelets were preincubated with naringenin (200 μmol/L) alone, the PI3K pan inhibitor LY294002 (5 μmol/L) alone or both for 5 min prior to ADP (10 μmol/L) activation. After stimulation with ADP, platelet aggregation was quantified and expressed as a percentage (A). Data are expressed as means ± SD (n = 6). ***p < 0.001 compared with the ADP-treated group, ^### p < 0.001 compared with naringenin alone or LY294002 alone. Platelet proteins were then extracted and specific antibodies were used to measure the level of total and phosphorylated Akt (B). The blots shown are representative of three separate experiments. The relative protein expression levels were quantified by ImageJ 1.47v software. The level of phosphorylation obtained in the ADP-treated group was taken as 1. Data are expressed as means ± SD (n = 3). ***p < 0.001 compared with the ADP-treated group, ^### p < 0.001 compared with naringenin alone or LY294002 alone.

[2] = system: Akt Thr308 phosphorylation; test: Immunoblotting of phospho-Akt (Thr308) in ADP-stimulated washed platelets; assay type: cell-based, rat; conditions: ADP 10 μmol/L, single replicates; for p-Akt Thr308 / t-Akt: raw data
Method: as §1, §2

[3] = system: Akt Thr308 phosphorylation; test: Ex vivo immunoblotting of phospho-Akt (Thr308) in ADP-stimulated PRP of treated rats; design: species or system rat; conditions: for p-Akt Thr308 / t-Akt (Fold to Control) / p-Akt Thr308 / t-Akt (raw data): ex vivo, Figure 8D
Method: Male SD rats were randomly divided into 5 groups with 6 rats in each group. […] Sixty minutes after the last sample treatment, blood was drawn from the abdominal aorta of rats into the siliconized vacutainers containing 1:9 (v/v) 3.8% sodium citrate. The collected blood was centrifuged at 100 × g for 10 min at room temperature to obtain PRP. […] The platelet counts of PRP were adjusted to 4×10^8 cells/mL using PPP. PRP was incubated for 5 min at 37°C and then stimulated by ADP (5 μM). The maximum platelet aggregation rate was determined as mentioned above.
as §1
Blood was collected and PRP was obtained after the last treatment. Platelet aggregation was induced by ADP (5 μmol/L) (A). Data are expressed as means ± SD (n = 6). After ADP stimulation, platelet proteins were then extracted and analyzed by immunoblotting using PI3Kp110β antibody (B) and phospho-specific antibodies such as Akt^Ser473 (C), Akt^Thr308 (D) and ERK1/2^Thr202/Tyr204 (E). Total level of GAPDH was measured on each sample as a loading control. The blots shown are representative of three separate experiments. The relative protein expression levels were quantified by ImageJ 1.47v software. The level of relative protein expression obtained with vehicle control was taken as 1. R represents the level of relative protein expression in resting platelets. Data are expressed as means ± SD (n = 3). *p < 0.05, **p < 0.01, ***p < 0.001 compared with the vehicle control group (Con).
To further investigate the antiplatelet mechanisms of naringenin ex vivo, several signaling molecules such as PI3Kp110β, Akt and ERK were detected. After oral administration of naringenin (200, 400, and 800 mg/kg) to rats for 7 days, rat PRP was prepared and stimulated by ADP (5 μmol/L), and platelets were lysed to determine protein phosphorylation levels using western blot.

[4] = Figure 5B: ADP 10 μM, naringenin 200 μM alone

O=C1C[C@@H](c2ccc(O)cc2)Oc2cc(O)cc(O)c21 [Naringenin]
p-Akt Ser473 / t-Akt ([1]; ADP 10 μmol/L, 100 μM): 0.1822 and 0.1825 and 0.1171
p-Akt Ser473 / t-Akt (Fold to ADP only) ([1]; ADP 10 μmol/L, 100 μM): 0.4309 Fold to ADP only and 0.4315 Fold to ADP only and 0.2769 Fold to ADP only
p-Akt Ser473 / t-Akt ([1]; ADP 10 μmol/L, 200 μM): 0.1611 and 0.1671 and 0.0697
p-Akt Ser473 / t-Akt (Fold to ADP only) ([1]; ADP 10 μmol/L, 200 μM): 0.3810 Fold to ADP only and 0.3953 Fold to ADP only and 0.1648 Fold to ADP only
p-Akt Ser473 / t-Akt ([1]; ADP 10 μmol/L, 400 μM): 0.1761 and 0.0969 and 0.0748
p-Akt Ser473 / t-Akt (Fold to ADP only) ([1]; ADP 10 μmol/L, 400 μM): 0.4165 Fold to ADP only and 0.2292 Fold to ADP only and 0.1768 Fold to ADP only
p-Akt Ser473 / t-Akt ([1]; ADP 10 μmol/L, 800 μM): 0.0725 and 0.0226 and 0.0288
p-Akt Ser473 / t-Akt (Fold to ADP only) ([1]; ADP 10 μmol/L, 800 μM): 0.1714 Fold to ADP only and 0.0534 Fold to ADP only and 0.0681 Fold to ADP only
p-Akt Ser473 / t-Akt [1, 4]: 0.5270 and 0.4157 and 0.3312
p-Akt Ser473 / t-Akt (Fold to ADP only) [1, 4]: 0.6055 Fold to ADP only and 0.4777 Fold to ADP only and 0.3805 Fold to ADP only
p-Akt Thr308 / t-Akt ([2]; 100 μM): 0.1089 and 0.0807 and 0.1359
p-Akt Thr308 / t-Akt (Fold to ADP only) ([2]; 100 μM): 0.3238 Fold to ADP only and 0.2400 Fold to ADP only and 0.4039 Fold to ADP only
p-Akt Thr308 / t-Akt ([2]; 200 μM): 0.0912 and 0.0481 and 0.0944
p-Akt Thr308 / t-Akt (Fold to ADP only) ([2]; 200 μM): 0.2711 Fold to ADP only and 0.1429 Fold to ADP only and 0.2806 Fold to ADP only
p-Akt Thr308 / t-Akt ([2]; 400 μM): 0.0712 and 0.0237 and 0.0830
p-Akt Thr308 / t-Akt (Fold to ADP only) ([2]; 400 μM): 0.2116 Fold to ADP only and 0.0703 Fold to ADP only and 0.2468 Fold to ADP only
p-Akt Thr308 / t-Akt ([2]; 800 μM): 0.0216 and 0.0199 and 0.0438
p-Akt Thr308 / t-Akt (Fold to ADP only) ([2]; 800 μM): 0.0641 Fold to ADP only and 0.0591 Fold to ADP only and 0.1303 Fold to ADP only
p-Akt Thr308 / t-Akt (Fold to Control) ([3]; naringenin 200mg/kg): 0.5157 and 0.5526 and 0.5291
p-Akt Thr308 / t-Akt (raw data) ([3]; naringenin 200mg/kg): 0.4340 and 0.4650 and 0.4452
p-Akt Thr308 / t-Akt (Fold to Control) ([3]; naringenin 400mg/kg): 0.3273 and 0.3649 and 0.3395
p-Akt Thr308 / t-Akt (raw data) ([3]; naringenin 400mg/kg): 0.2755 and 0.3071 and 0.2857
p-Akt Thr308 / t-Akt (Fold to Control) ([3]; naringenin 800mg/kg): 0.3636 and 0.3541 and 0.3985
p-Akt Thr308 / t-Akt (raw data) ([3]; naringenin 800mg/kg): 0.3060 and 0.2979 and 0.3354
phosphorylation of Akt at Thr308 in rat PRP ex vivo ([3]; rats, oral 200, 400, and 800 mg/kg for 7 days, ADP 5 μmol/L): significantly suppressed
